Experimental data: US4062862A, “5-Benzyl-2-oxazolidone derivatives and a process for producing the same” (Nippon Chemiphar Co., Ltd., priority 1975, dated 1977)

Experiments:
mice [1] = experiment: Muscular relaxing effect, Righting Reflex Test (R.r), oral, mice; type: in vivo, dd Male mice; conditions: Mus musculus, oral, mice; for responders at 500 mg/kg: Table 2, read-out: Inhibition percent of the central muscular relaxing effect, R.r (Righting Reflex Test)
Protocol: (§1) dd Male mice weighing 18 to 22 g, one group consisting of 10 animals, were orally given the compounds (I) to (V) as indicated below suspended in 0.2% carboxymethylcellulose solution in a dose of 0.25ml/10g-body weight. Mephenesin was used as active placebo.

mice [2] = experiment: Muscular relaxing effect, Corneal Reflex Test (C.r), oral, mice; type: in vivo, dd Male mice; conditions: Mus musculus, oral, mice; for responders at 500 mg/kg: Table 2, read-out: Inhibition percent of the central muscular relaxing effect, C.r (Corneal Reflex Test)
Protocol: as §1
Corneal reflex was observed by using mandolin wire for 1/4 injection syringe.

mice [3] = experiment: Muscular relaxing effect, Pinna Reflex Test (P.r), oral, mice; type: in vivo, dd Male mice; conditions: Mus musculus, oral, mice; for responders at 500 mg/kg: Table 2, read-out: Inhibition percent of the central muscular relaxing effect, P.r (Pinna Reflex Test)
Protocol: as §1
Pinna reflex was observed by using mandolin wire for 1/4 injection syringe.

[4] = test system: carrageenan-induced edema in rats; experiment: Antiinflammatory effect on carrageenan-induced edema; type: in vivo, Wistar male rats
Protocol: […] One hour after the administration of the test compounds, the hind paw was given a subcutaneous injection of 0.05ml of 0.5% carrageenan saline solution, and volume of the hind paw was measured at 1, 2, 3, 4, 5 and 6 hours after the injection of carrageenan by a volume differential meter. Inhibitory percent was calculated based on the swelling in the control. Phenybutazone was used as active placebo.

mice [5] = experiment: Muscular relaxing effect, Traction Test (T.T), oral, mice; type: in vivo, dd Male mice; conditions: Mus musculus, oral, mice; for responders at 500 mg/kg: Table 2, read-out: Inhibition percent of the central muscular relaxing effect, T.T (Traction Test)
Protocol: as §1

mice [6] = experiment: Muscular relaxing effect, Inclined Plane Test (I.P), oral, mice; type: in vivo, dd Male mice; conditions: Mus musculus, oral, mice; for responders at 500 mg/kg: Table 2, read-out: Inhibition percent of the central muscular relaxing effect, I.P (Inclined Plane Test)
Protocol: as §1
Mice were placed on veneer inclined at an angle of 30° and on wire-netting inclined at an angle of 60° of which one division is 5 mm square, and mice sliding down were observed as positive, in comparison with normal behavior.

mice [7] = experiment: Muscular relaxing effect, Rotarod Method (R.R), oral, mice; type: in vivo, dd Male mice; conditions: Mus musculus, oral, mice; for responders at 500 mg/kg: Table 2, read-out: Inhibition percent of the central muscular relaxing effect, R.R (Rotarod Method)
Protocol: as §1
Mice were placed on Rotar Load (made by Natsume Seisakusho Co., Ltd.) having a diameter of 3 cm rotating at a speed of 10 rpm and falling (occurring within 3 minutes) was observed.

pain threshold in mice = experiment: Analgetic effect, Pressure Test (pain threshold, tail pressure); type: in vivo, dd Male mice; conditions: 100 mg/kg oral; for Pain threshold, Mean ± SE, 30 min / Pain threshold, Mean ± SE, 60 min / Pain threshold, Mean ± SE, 90 min / Pain threshold, Mean ± SE, 120 min: *p <0.05, **p <0.01, ***p <0.001
Protocol: dd Male mice weighing 18 to 22 g (pain threshold ranging within 30 to 50 mmHg), one group consisting of 10 animals, were given orally the test compounds suspended in 0.2% carboxymethylcellulose solution in a dose of 100mg/kg-body weight. Pain threshold were measured at 30, 60, 90 and 120 minutes after the administration of the test compounds while pain reaction occurring by application of pressure on tails of animals was referred to as indication. Aminopyrine was used as active placebo.

[8] = Table 1, maximum response 15-180 min, Litchfield Wilcoxon

SMILES | responders at 500 mg/kg (mice [1]) [%] | responders at 500 mg/kg (mice [2]) [%] | responders at 500 mg/kg (mice [3]) [%] | responders at 500 mg/kg (mice [5]) [%] | responders at 500 mg/kg (mice [6]) [%] | responders at 500 mg/kg (mice [7]) [%] | Pain threshold Increase Ratio (pain threshold in mice) | Pain threshold, Mean ± SE, 30 min (pain threshold in mice) [mmHg] | Pain threshold, Mean ± SE, 60 min (pain threshold in mice) [mmHg] | Pain threshold, Mean ± SE, 90 min (pain threshold in mice) [mmHg] | Pain threshold, Mean ± SE, 120 min (pain threshold in mice) [mmHg] | further results
O=C1NCC(Cc2cccc(C(F)(F)F)c2)O1 (centres unmarked) [IX, 5-(m-trifluoromethylbenzyl)-2-oxazolidone] | 0 | 0 | 60 | 60 | 60 | 90 |  |  |  |  |  | Inhibitory per cent, carrageenan-induced edema, 1 hr ([4]; Table 6, 200 mg/kg oral): 45.0 per cent; Inhibitory per cent, carrageenan-induced edema, 2 hrs. ([4]; Table 6, 200 mg/kg oral): 49.4 per cent; Inhibitory per cent, carrageenan-induced edema, 3 hrs. ([4]; Table 6, 200 mg/kg oral): 20.8 per cent; Inhibitory per cent, carrageenan-induced edema, 4 hrs. ([4]; Table 6, 200 mg/kg oral): 11.3 per cent; Inhibitory per cent, carrageenan-induced edema, 5 hrs. ([4]; Table 6, 200 mg/kg oral): 14.5 per cent; Inhibitory per cent, carrageenan-induced edema, 6 hrs. ([4]; Table 6, 200 mg/kg oral): 11.5 per cent
Cc1ccccc1OCC(O)CO (centres unmarked) [Mephenesin, reference compound] | 20 | 0 | 20 | 40 | 60 | 80 |  |  |  |  |  | ED50 (mice [1]; [8]): 640 mg/kg; ED50 (mice [2]; [8]): 680 mg/kg; ED50 (mice [3]; [8]): 420 mg/kg; ED50 (mice [5]; [8]): 460 mg/kg; ED50 (mice [6]; [8]): 470 mg/kg; ED50 (mice [7]; [8]): 268 mg/kg
CCCCC1C(=O)N(c2ccccc2)N(c2ccccc2)C1=O [Phenylbutazone, reference compound] |  |  |  |  |  |  |  |  |  |  |  | Inhibitory per cent, carrageenan-induced edema, 3 hrs. ([4]; Table 5, 200 mg/kg oral): 76.6 per cent; Inhibitory per cent, carrageenan-induced edema, 6 hrs. ([4]; Table 5, 200 mg/kg oral): 45.1 per cent; Inhibitory per cent, carrageenan-induced edema, 1 hr ([4]; Table 6, 100 mg/kg oral): 59.1 per cent; Inhibitory per cent, carrageenan-induced edema, 2 hrs. ([4]; Table 6, 100 mg/kg oral): 54.6 per cent; Inhibitory per cent, carrageenan-induced edema, 3 hrs. ([4]; Table 6, 100 mg/kg oral): 59.7 per cent; Inhibitory per cent, carrageenan-induced edema, 4 hrs. ([4]; Table 6, 100 mg/kg oral): 68.2 per cent; Inhibitory per cent, carrageenan-induced edema, 5 hrs. ([4]; Table 6, 100 mg/kg oral): 63.4 per cent; Inhibitory per cent, carrageenan-induced edema, 6 hrs. ([4]; Table 6, 100 mg/kg oral): 52.6 per cent
CCc1ccc(CC2CNC(=O)O2)cc1 (centres unmarked) [VII, 5-(p-ethylbenzyl)-2-oxazolidone] | 0 | 0 | 0 | 40 | 40 | 80 |  |  |  |  |  | 
O=C1NCC(Cc2ccccc2C(F)(F)F)O1 (centres unmarked) [VIII, 5-(o-trifluoromethylbenzyl)-2-oxazolidone] | 10 | 0 | 10 | 40 | 40 | 90 | 1.28 | 62.0 ± 4.6 | 60.2 ± 3.0 | 57.5 ± 3.2 | 52.9 ± 2.0 | Inhibitory per cent, carrageenan-induced edema, 1 hr ([4]; Table 6, 200 mg/kg oral): 21.7 per cent; Inhibitory per cent, carrageenan-induced edema, 2 hrs. ([4]; Table 6, 200 mg/kg oral): 49.7 per cent; Inhibitory per cent, carrageenan-induced edema, 3 hrs. ([4]; Table 6, 200 mg/kg oral): 27.4 per cent; Inhibitory per cent, carrageenan-induced edema, 4 hrs. ([4]; Table 6, 200 mg/kg oral): 35.6 per cent; Inhibitory per cent, carrageenan-induced edema, 5 hrs. ([4]; Table 6, 200 mg/kg oral): 9.2 per cent; Inhibitory per cent, carrageenan-induced edema, 6 hrs. ([4]; Table 6, 200 mg/kg oral): 0.5 per cent
O=C1NCC(Cc2ccccc2Br)O1 (centres unmarked) [XII, 5-(o-bromobenzyl)-2-oxazolidone] | 0 | 0 | 20 | 60 | 80 | 100 | 1.24 | 59.6 ± 3.4 | 59.4 ± 3.7 | 57.5 ± 1.9 | 52.7 ± 2.1 | 
O=C1NCC(Cc2ccccc2F)O1 (centres unmarked) [XIII, 5-(o-fluorobenzyl)-2-oxazolidone] | 20 | 10 | 0 | 70 | 50 | 90 | 1.13 | 52.1 ± 3.4 | 53.7 ± 2.6 | 50.4 ± 2.8 | 47.3 ± 1.8 | 
